Tested on: 556581-035-R-J1 tumor spheroid viability, % test/control
Experiment: Anticancer human tumor 556581-035-R-J1 patient-derived ovarian carcinoma cell line growth inhibition
Settings: spheroids with HUVEC and MSC; for IC50: curve of first compound; for viability, T/C: stronger effect = lower value; active means viability on the fitted dose curve at most 10% of control; inactive means the rest
Summary of the method: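 Complex tumor spheroids combined malignant cells with endothelial cells and mesenchymal stem cells. DNA-damaging drugs and DNA repair inhibitors were tested alone and in combination, at half-log dilutions down from clinical Cmax (top 10 microM if Cmax unknown), 0.25% DMSO final.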

[1] = second compound 0.003 µM, first compound 0.0316 µM
[2] = second compound 0.003 µM, first compound 0.1 µM
[3] = second compound 0.003 µM, first compound 0.316 µM
[4] = second compound 0.003 µM, first compound 1 µM
[5] = second compound 0.003 µM, first compound 3.16 µM
[6] = second compound 0.003 µM, first compound 10 µM
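Further: spheroids exposed to compounds for 7 days before viability read.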

Cc1cc(C)c(CNC(=O)c2cc(-c3ccc(CN4CCOCC4)cc3)cc3c2cnn3C2CCCC2)c(=O)[nH]1 + COc1cc2c(cc1O)CCNC21CSC2c3c(OC(C)=O)c(C)c4c(c3C(COC1=O)N1C(O)C3Cc5cc(C)c(OC)c(O)c5C(C21)N3C)OCO4
inactive: viability, T/C (second compound 30 pM, first compound 0.0316 µM) 100% | viability, T/C (second compound 30 pM, first compound 0.1 µM) 108% | viability, T/C (second compound 30 pM, first compound 0.316 µM) 105% | viability, T/C (second compound 30 pM, first compound 1 µM) 117% | viability, T/C (second compound 30 pM, first compound 3.16 µM) 112% | viability, T/C (second compound 30 pM, first compound 10 µM) 97.5% | viability, T/C (second compound 94.9 pM, first compound 0.0316 µM) 109% | viability, T/C (second compound 94.9 pM, first compound 0.1 µM) 108% | viability, T/C (second compound 94.9 pM, first compound 0.316 µM) 110% | viability, T/C (second compound 94.9 pM, first compound 1 µM) 109% | viability, T/C (second compound 94.9 pM, first compound 3.16 µM) 110% | viability, T/C (second compound 94.9 pM, first compound 10 µM) 88.3% | viability, T/C (second compound 0.0003 µM, first compound 0.0316 µM) 99.9% | viability, T/C (second compound 0.0003 µM, first compound 0.1 µM) 100% | viability, T/C (second compound 0.0003 µM, first compound 0.316 µM) 103% | viability, T/C (second compound 0.0003 µM, first compound 1 µM) 103% | viability, T/C (second compound 0.0003 µM, first compound 3.16 µM) 98.4% | viability, T/C (second compound 0.0003 µM, first compound 10 µM) 88.3% | viability, T/C (second compound 0.000949 µM, first compound 0.0316 µM) 45.2% | viability, T/C (second compound 0.000949 µM, first compound 0.1 µM) 43.5% | viability, T/C (second compound 0.000949 µM, first compound 0.316 µM) 46% | viability, T/C (second compound 0.000949 µM, first compound 1 µM) 30.7% | viability, T/C (second compound 0.000949 µM, first compound 3.16 µM) 24.5% | viability, T/C (second compound 0.000949 µM, first compound 10 µM) 11.6%
> 10 µM: IC50 (second compound 30 pM) | IC50 (second compound 94.9 pM) | IC50 (second compound 0.0003 µM)
active: viability, T/C [1] 1.01% | viability, T/C [2] 0.92% | viability, T/C [3] 0.9% | viability, T/C [4] 0.75% | viability, T/C [5] 0.82% | viability, T/C [6] 1.15%
< 0.0316 µM: IC50 (second compound 0.000949 µM) | IC50 (second compound 0.003 µM)

Cn1ncnc1[C@H]1c2n[nH]c(=O)c3cc(F)cc(c23)N[C@@H]1c1ccc(F)cc1 + CC[C@@]1(O)C(=O)OCc2c1cc1n(c2=O)Cc2cc3c(CN(C)C)c(O)ccc3nc2-1
1.3 µM: IC50 (second compound 0.03 µM)
inactive: viability, T/C (second compound 0.003 µM, first compound 0.00949 µM) 105% | viability, T/C (second compound 0.003 µM, first compound 0.03 µM) 97.7% | viability, T/C (second compound 0.003 µM, first compound 0.0949 µM) 93.2% | viability, T/C (second compound 0.003 µM, first compound 0.3 µM) 94.3% | viability, T/C (second compound 0.003 µM, first compound 0.949 µM) 71.1% | viability, T/C (second compound 0.003 µM, first compound 3 µM) 57.1% | viability, T/C (second compound 0.00949 µM, first compound 0.00949 µM) 88.2% | viability, T/C (second compound 0.00949 µM, first compound 0.03 µM) 81.7% | viability, T/C (second compound 0.00949 µM, first compound 0.0949 µM) 82.2% | viability, T/C (second compound 0.00949 µM, first compound 0.3 µM) 71.4% | viability, T/C (second compound 0.00949 µM, first compound 0.949 µM) 68.5% | viability, T/C (second compound 0.00949 µM, first compound 3 µM) 49.4% | viability, T/C (second compound 0.03 µM, first compound 0.00949 µM) 70% | viability, T/C (second compound 0.03 µM, first compound 0.03 µM) 67.2% | viability, T/C (second compound 0.03 µM, first compound 0.0949 µM) 63.2% | viability, T/C (second compound 0.03 µM, first compound 0.3 µM) 64.9% | viability, T/C (second compound 0.03 µM, first compound 0.949 µM) 52.9% | viability, T/C (second compound 0.03 µM, first compound 3 µM) 39.8% | viability, T/C (second compound 0.0949 µM, first compound 0.00949 µM) 57.9% | viability, T/C (second compound 0.0949 µM, first compound 0.03 µM) 51.3% | viability, T/C (second compound 0.0949 µM, first compound 0.0949 µM) 45% | viability, T/C (second compound 0.0949 µM, first compound 0.3 µM) 44.2% | viability, T/C (second compound 0.0949 µM, first compound 0.949 µM) 36.2% | viability, T/C (second compound 0.0949 µM, first compound 3 µM) 19.2% | viability, T/C (second compound 0.3 µM, first compound 0.00949 µM) 13.2% | viability, T/C (second compound 0.3 µM, first compound 0.03 µM) 13.1% | viability, T/C (second compound 0.3 µM, first compound 0.0949 µM) 12.7% | viability, T/C (second compound 0.3 µM, first compound 0.3 µM) 11%
0.0675 µM: IC50 (second compound 0.0949 µM)
active: viability, T/C (second compound 0.3 µM, first compound 0.949 µM) 9.44% | viability, T/C (second compound 0.3 µM, first compound 3 µM) 6.18%
> 3 µM: IC50 (second compound 0.003 µM) | IC50 (second compound 0.00949 µM)
< 0.00949 µM: IC50 (second compound 0.3 µM)

[2H]c1nc(C)nc([2H])c1-c1cc(NC[C@@H](C)c2cccc3c(C(=O)NC)ccnc23)ncn1 + CC[C@@]1(O)C(=O)OCc2c1cc1n(c2=O)Cc2cc3c(CN(C)C)c(O)ccc3nc2-1
5.69 µM: IC50 (second compound 0.0949 µM)
inactive: viability, T/C [1] 101% | viability, T/C [2] 104% | viability, T/C [3] 101% | viability, T/C [4] 104% | viability, T/C [5] 102% | viability, T/C [6] 101% | viability, T/C (second compound 0.00949 µM, first compound 0.0316 µM) 94.9% | viability, T/C (second compound 0.00949 µM, first compound 0.1 µM) 101% | viability, T/C (second compound 0.00949 µM, first compound 0.316 µM) 95.7% | viability, T/C (second compound 0.00949 µM, first compound 1 µM) 89.8% | viability, T/C (second compound 0.00949 µM, first compound 3.16 µM) 93.7% | viability, T/C (second compound 0.00949 µM, first compound 10 µM) 93.1% | viability, T/C (second compound 0.03 µM, first compound 0.0316 µM) 78.7% | viability, T/C (second compound 0.03 µM, first compound 0.1 µM) 75.7% | viability, T/C (second compound 0.03 µM, first compound 0.316 µM) 72.4% | viability, T/C (second compound 0.03 µM, first compound 1 µM) 74.5% | viability, T/C (second compound 0.03 µM, first compound 3.16 µM) 78.3% | viability, T/C (second compound 0.03 µM, first compound 10 µM) 79% | viability, T/C (second compound 0.0949 µM, first compound 0.0316 µM) 54.6% | viability, T/C (second compound 0.0949 µM, first compound 0.1 µM) 56% | viability, T/C (second compound 0.0949 µM, first compound 0.316 µM) 55.6% | viability, T/C (second compound 0.0949 µM, first compound 1 µM) 52.6% | viability, T/C (second compound 0.0949 µM, first compound 3.16 µM) 50.7% | viability, T/C (second compound 0.0949 µM, first compound 10 µM) 49% | viability, T/C (second compound 0.3 µM, first compound 0.0316 µM) 13.8% | viability, T/C (second compound 0.3 µM, first compound 0.1 µM) 13.9% | viability, T/C (second compound 0.3 µM, first compound 0.316 µM) 11.5% | viability, T/C (second compound 0.3 µM, first compound 1 µM) 9.66% | viability, T/C (second compound 0.3 µM, first compound 3.16 µM) 12.9% | viability, T/C (second compound 0.3 µM, first compound 10 µM) 8.88%
< 0.0316 µM: IC50 (second compound 0.3 µM)
> 10 µM: IC50 (second compound 0.003 µM) | IC50 (second compound 0.00949 µM) | IC50 (second compound 0.03 µM)
